Consider twelve compounds from ChEMBL document CHEMBL1201862, “PubChem BioAssay data set” (2004).

Some test systems named below: Malme-3M; HT-29; HCC 2998; ACHN; A498; UACC-62; A549; MDA-MB-435; MOLT-4; KM12; PC-3; SN12C; TK-10; SK-MEL-2; LOX IMVI; EKVX; DU-145; NCI-H522; OVCAR-4; MDA-MB-231.
What all share (assay): growth of human tumour cells (NCI), 48 h

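48-hour exposure; five concentrations; linearly interpolated endpoints. GI50 marks 50% less growth.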 Calls of active or inactive are those of the source. Rule as the data show it: active = GI50 up to about 1.1 µM and inactive = higher.

For `CCCCCCOc1ccc(NC2=C(Cl)C(=O)c3cccnc3C2=O)cc1`, the GI50 with Malme-3M was 2.3 µM (inactive); in the test on HT-29 it was 2.62 µM (inactive); with HCC 2998, 1.56 µM (inactive); in the test with ACHN, 2.1 µM (inactive); in the test with A498, > 10 µM (inactive); in the test on UACC-62, 1.07 µM (active). Moreover, the GI50 was 1.95 µM (inactive) in the test on A549; 1.75 µM (inactive) in the test with MDA-MB-435; 1.87 µM (inactive) in the test on MOLT-4; 1.61 µM (inactive) in the test with KM12; 2.41 µM (inactive) in the test with PC-3; 1.68 µM (inactive) in the test with SN12C. For the same compound, the GI50 is 3.3 µM (inactive) in the test on TK-10; 1.59 µM (inactive) in the test on SK-MEL-2; 1.36 µM (inactive) with LOX IMVI; 1.67 µM (inactive) in the test with EKVX; 1.55 µM (inactive) with DU-145.
As for `CCCCc1c2c(nc3c1CCC/C3=C\c1ccccc1)C(=O)CCC2`, the GI50 in the test on Malme-3M is 26 µM (inactive); in the test on HT-29, 15.5 µM (inactive); with HCC 2998 it was 20.3 µM (inactive); in the test on ACHN it was 25.7 µM (inactive); in the test on A498 it was 19.4 µM (inactive); with UACC-62, 22.6 µM (inactive). Further, the GI50 is 25.6 µM (inactive) in the test with A549; 13.8 µM (inactive) with MOLT-4; 18.7 µM (inactive) in the test with KM12; 13.2 µM (inactive) in the test on NCI-H522; 19.6 µM (inactive) in the test with SN12C; 24.5 µM (inactive) in the test on TK-10. Besides, the GI50 is 17.1 µM (inactive) in the test on SK-MEL-2, 17.6 µM (inactive) in the test with LOX IMVI, 19.1 µM (inactive) in the test with EKVX and 28.4 µM (inactive) with OVCAR-4.
Consider `CCc1ccccc1NC(=O)C1=C(C)NC(C)=C(C(=O)Nc2ccccc2CC)C1c1cccc([N+](=O)[O-])c1`, for which the GI50 is 35.9 µM (inactive) with Malme-3M; 37.1 µM (inactive) in the test on HT-29; 11.7 µM (inactive) with HCC 2998; 29.5 µM (inactive) in the test with ACHN; 24.2 µM (inactive) in the test on A498; 21.5 µM (inactive) in the test on A549. Moreover, the GI50 in the test on MOLT-4 was 7.45 µM (inactive); in the test on KM12, 32.8 µM (inactive); in the test on NCI-H522 it was 22.2 µM (inactive); in the test with SN12C, 70.6 µM (inactive); with TK-10, 41.6 µM (inactive); in the test on SK-MEL-2, 19.5 µM (inactive). For the same compound, the figures for the GI50 in the test on LOX IMVI, with EKVX and in the test on OVCAR-4 were 87.9 µM (inactive), 34 µM (inactive) and 7.85 µM (inactive), respectively.
For `COc1cc(-c2cc(=O)c3ccccc3o2)ccc1N`, the GI50 with Malme-3M is > 100 µM (inactive); in the test with HT-29, 52.8 µM (inactive); in the test on HCC 2998 it was > 100 µM (inactive); with ACHN, 47.3 µM (inactive); with A498, 27.2 µM (inactive); with UACC-62, 79.8 µM (inactive). In addition, the GI50 was 52.1 µM (inactive) in the test with A549; 25.5 µM (inactive) with MOLT-4; 39.3 µM (inactive) in the test with KM12; 20.5 µM (inactive) in the test with NCI-H522; 65.8 µM (inactive) in the test with SN12C; > 100 µM (inactive) in the test on TK-10. Also, the GI50 with SK-MEL-2 was > 100 µM (inactive); in the test with LOX IMVI it was 51.1 µM (inactive); in the test with EKVX, 12.8 µM (inactive); in the test on OVCAR-4, 54.5 µM (inactive).
Turning to `Cc1cc(Br)ccc1/N=N/C1C(=O)ON=C1c1ccccc1` (stereo not given), the GI50 with Malme-3M was > 100 µM (inactive); with HT-29, 47.1 µM (inactive); with HCC 2998 it was 26.5 µM (inactive); in the test with ACHN it was 63.4 µM (inactive); in the test on A498 it was 35 µM (inactive); with UACC-62 it was > 100 µM (inactive). For the same compound, the GI50 in the test on A549 was 25.7 µM (inactive); in the test with MOLT-4 it was 31.3 µM (inactive); with KM12, > 100 µM (inactive); in the test with NCI-H522 it was 40.6 µM (inactive); in the test on SN12C, > 100 µM (inactive); in the test on TK-10 it was 69.3 µM (inactive). The GI50 with SK-MEL-2 is > 100 µM (inactive); in the test on LOX IMVI, 63.4 µM (inactive); in the test with EKVX, 67 µM (inactive); in the test on OVCAR-4, > 100 µM (inactive).
As for `COC(=O)C(/C(=N/NC(N)=O)C(=O)Nc1c(C)cccc1C(C)(C)C)c1nc2ccc(Cl)cc2nc1O` (stereo not given), the GI50 in the test with Malme-3M, in the test with HT-29, in the test with HCC 2998, in the test with ACHN, in the test on A498 and in the test with UACC-62 was > 100 µM (inactive) throughout. Moreover, the GI50 with A549, with MOLT-4, in the test on KM12, in the test on NCI-H522, in the test on SN12C and in the test on TK-10 was > 100 µM (inactive) in each case. Further, the GI50 in the test on SK-MEL-2 is > 100 µM (inactive); in the test with LOX IMVI it was > 100 µM (inactive); in the test on EKVX, 75.5 µM (inactive); in the test on OVCAR-4, > 100 µM (inactive).
Regarding `CCC1C(c2cc(OC)c(OC)c(OC)c2)c2cc3c(cc2OC1N1CCOCC1)OCO3` (stereo not given), the GI50 in the test with Malme-3M is 13.2 µM (inactive); in the test on HT-29, 2.73 µM (inactive); in the test on ACHN it was 3.99 µM (inactive); in the test with UACC-62, 6.08 µM (inactive); in the test on A549 it was 4.36 µM (inactive); in the test on MOLT-4, 1.88 µM (inactive). Moreover, the GI50 is 4.95 µM (inactive) with NCI-H522; 2.02 µM (inactive) with PC-3; 8.15 µM (inactive) in the test on SN12C; 14.7 µM (inactive) in the test on SK-MEL-2; 2.48 µM (inactive) in the test with LOX IMVI; 14.2 µM (inactive) in the test on EKVX. The results for the GI50 with OVCAR-4, in the test on DU-145 and in the test on MDA-MB-231 were 2.12 µM (inactive), 5.33 µM (inactive) and 15.8 µM (inactive), respectively.
On to `CS(=O)(=O)C1(Br)S(=O)(=O)OCCOS1(=O)=O`, for which the GI50 in the test on Malme-3M, in the test with HT-29, in the test with HCC 2998, in the test with ACHN, in the test on A498 and with UACC-62 was > 100 µM (inactive) in each case. For the same compound, the GI50 with A549, with MOLT-4, in the test with NCI-H522, in the test with SN12C, in the test on TK-10 and in the test with SK-MEL-2 was > 100 µM (inactive) in each case. The GI50 in the test on LOX IMVI, in the test with EKVX and in the test with OVCAR-4 was > 100 µM (inactive) throughout.
`COc1cc(-c2nn3c(=O)n(-c4ccc(Cl)cc4)c(=O)nc3s2)cc(OC)c1OC`: the GI50 is 65.9 µM (inactive) with Malme-3M; > 100 µM (inactive) with HT-29; > 100 µM (inactive) in the test with HCC 2998; 16.3 µM (inactive) with ACHN; > 67 µM (inactive) in the test on A498; > 50 µM (inactive) in the test on UACC-62. Further, the GI50 in the test with A549 is 41 µM (inactive); in the test with MOLT-4 it was 98.2 µM (inactive); with KM12 it was > 65.8 µM (inactive); in the test with NCI-H522 it was > 58.2 µM (inactive); in the test on SN12C it was > 96.2 µM (inactive); in the test with TK-10 it was 8.55 µM (inactive). The GI50 in the test with SK-MEL-2 is 24.9 µM (inactive); with LOX IMVI, 18.5 µM (inactive); in the test with EKVX, > 86.5 µM (inactive); in the test with OVCAR-4, 41.9 µM (inactive).
As to `CC(=O)c1ccc(N2CCN(C3=CC(=O)c4c(O)ccc(O)c4C3=O)CC2)cc1`, the GI50 in the test on Malme-3M was 4.36 µM (inactive); in the test with HT-29, 30.2 µM (inactive); with HCC 2998, > 100 µM (inactive); in the test on A498 it was > 100 µM (inactive); in the test with UACC-62, 31.4 µM (inactive); in the test on A549 it was 19 µM (inactive). Moreover, the GI50 with MOLT-4 was 5.38 µM (inactive); in the test with KM12, 51.8 µM (inactive); in the test on PC-3, 66.1 µM (inactive); in the test on TK-10 it was 61 µM (inactive); in the test on EKVX, > 100 µM (inactive); in the test with OVCAR-4, > 100 µM (inactive). Further, the GI50 in the test on DU-145 was > 100 µM (inactive); in the test with MDA-MB-231, 13.4 µM (inactive).
Consider `CC1=NN(c2ccccc2)C(=O)C1C(=O)C(=O)Nc1ccc(C)cc1C` (stereo not given), for which the GI50 in the test on Malme-3M, with HT-29, in the test with HCC 2998, in the test with ACHN, with A498 and in the test on UACC-62 was > 100 µM (inactive) each time. The GI50 in the test with A549, in the test with MOLT-4, with KM12, in the test on NCI-H522, in the test with PC-3 and in the test on SN12C was > 100 µM (inactive) in each case. The GI50 in the test with TK-10, with SK-MEL-2, in the test with LOX IMVI, in the test with EKVX, in the test with OVCAR-4 and in the test on DU-145 was > 100 µM (inactive) in each case.
Regarding `O=[N+]([O-])C1C2C=CC(C2)[C@H]1c1ccco1` (stereo not given in full), the GI50 in the test with Malme-3M is > 100 µM (inactive); in the test with HT-29 it was 2.19 µM (inactive); in the test on HCC 2998, > 100 µM (inactive); with ACHN, > 100 µM (inactive); with A498 it was > 100 µM (inactive); in the test with UACC-62, > 100 µM (inactive). The GI50 in the test on A549, in the test on MOLT-4, with KM12, with NCI-H522, with SN12C and with TK-10 was > 100 µM (inactive) each time. Besides, the GI50 in the test with SK-MEL-2, in the test with LOX IMVI, with EKVX and with OVCAR-4 was > 100 µM (inactive) in each case.
